Consider four compounds from US6750375B2, “Transgenic mouse comprising a disruption in an RGS9 gene” (California Institute of Technology, priority 2000, dated 2004).

Common to all, as to format: in vivo, mouse
Series [1] relates to RGS9 knockout mice and their wild type littermates. Nature of the series: Locomotor activity (photobeam cage rack) in unlesioned animals. Here is the method:
(§1) RGS9 knockout mice and their wild type littermates were placed in the photobeam cage rack activity system. The photobeam cage rack activity system was made by San Diego Instruments. Single events represent disruption of two distinct light beams 10 cm apart. Before drug administration, animals were allowed to habituate for 30 min. which was scored as baseline activity. […] All drugs were injected intraperitoneally. Drug effects were assessed for 30 min. Bodyweight was measured prior to all drug applications.
Locomotion in Unlesioned Animals

The test system is the same in series [2]. Nature of the series: Dyskinesia rating (abnormal involuntary movements) in reserpine treated animals. The conditions noted are these: apomorphine 5 mg/kg after chronic reserpine. The source says:
To score for abnormal involuntary movements we adapted a rating scale that was previously used to score drug induced dyskinesia in monkeys (Goulet and Madra, JPET 2000). Both, trunk and limb, dyskinesia and stereotypic behavior were rated-absent (=O), mild (=1), moderate (=or 2) or severe (=3).
Using a modified monkey dyskinesia scale, there was a dramatic difference between homozygous knock out animals and wild type or heterozygous mice (FIG. 3).

The test system is the same in series [3]. The series can be described thus: Locomotion in dopamine depleted (reserpine treated) animals. Here is the method: as §1
There are several options to induce behavioral changes secondary to a dopaminergic deficit in rodents. However, a strong phenotype in mice is difficult o achieve. […] Therefore, we depleted the animals of dopamine using chronic treatment with reserpine (1 mg /kg per day×5 days). […] Baseline locomotor activity was already greater in homozygous knock-out animals (FIG. 2, n. s.).

Structures are written as SMILES.

The compound `Oc1cc2c(cc1O)C(c1ccccc1)CNCC2` (stereo not shown) [SKF 38393] yielded an increase in locomotion in series [1] (SKF 38393 10 mg/kg, all animals, no differences between genotypes (p=0.7)) of 2 fold.

Consider `C[C@H](N)Cc1ccccc1` [amphetamine, d-amphetamine], for which the “increase in locomotion, homozygous knock-out vs wild type” value in series [1] (amphetamine 5 mg/kg intraperitoneal, homozygous knock-out animals, p<0.05, t-test) was “significantly greater increase in locomotion”. In addition, the locomotion entry in series [1] (amphetamine 5 mg/kg intraperitoneal, wild type and RGS9 deficient animals) is listed as “robust increase in locomotion”.

For the compound `CN1CCc2cccc3c2[C@H]1Cc1ccc(O)c(O)c1-3` [apomorphine], the “abnormal motor behavior (dystonia, hyperkinetic movements of the hindlimbs)” value in series [2] was “induced abnormal motor behavior only in homozygous knockout animals”. The locomotor activity result in series [3] (apomorphine 5 mg/kg after chronic reserpine, all animals) is “induced locomotor activity in all animals”. Moreover, in series [3] (apomorphine 5 mg/kg after chronic reserpine, homozygous knock out animals, p<0.05), the “locomotor activity, homozygous knock-out vs other animals” value is “more pronounced in homozygous knock out animals”.

Take `COC(=O)[C@H]1[C@H]2C[C@@H]3c4[nH]c5cc(OC)ccc5c4CCN3C[C@H]2C[C@@H](OC(=O)c2cc(OC)c(OC)c(OC)c2)[C@@H]1OC` [reserpine]: in series [3] (reserpine 1 mg/kg per day x 5 days), the spontaneous locomotion entry is “greatly reduced spontaneous locomotion”.
